# In ChEMBL document CHEMBL1781960, “Discovery of non-glycoside sodium-dependent glucose co-transporter 2 (SGLT2) inhibitors by ligand-based virtual screening” (J Med Chem, 2010):
# Biological target: T1, Sodium/glucose cotransporter 2 (Homo sapiens) (UniProt P31639)
# T1 sequence (whole entry): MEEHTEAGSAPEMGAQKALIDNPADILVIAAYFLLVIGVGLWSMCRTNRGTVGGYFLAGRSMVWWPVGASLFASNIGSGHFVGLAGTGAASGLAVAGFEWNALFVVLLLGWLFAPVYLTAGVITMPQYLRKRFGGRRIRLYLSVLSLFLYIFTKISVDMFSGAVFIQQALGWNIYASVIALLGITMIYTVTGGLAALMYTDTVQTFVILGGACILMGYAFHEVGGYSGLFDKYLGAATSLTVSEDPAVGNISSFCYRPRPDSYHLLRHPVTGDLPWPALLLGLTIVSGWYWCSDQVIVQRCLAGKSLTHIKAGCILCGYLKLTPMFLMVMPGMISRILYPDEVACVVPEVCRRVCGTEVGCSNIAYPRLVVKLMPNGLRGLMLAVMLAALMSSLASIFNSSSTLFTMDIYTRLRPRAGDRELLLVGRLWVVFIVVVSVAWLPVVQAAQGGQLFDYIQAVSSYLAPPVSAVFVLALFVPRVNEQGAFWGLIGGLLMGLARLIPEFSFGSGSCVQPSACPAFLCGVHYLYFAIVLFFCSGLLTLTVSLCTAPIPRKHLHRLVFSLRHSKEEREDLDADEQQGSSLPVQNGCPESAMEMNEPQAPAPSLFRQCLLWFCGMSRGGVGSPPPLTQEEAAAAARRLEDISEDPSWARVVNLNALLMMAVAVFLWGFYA
# Assay: (§1) Inhibition of human SGLT2 expressed in CHO-K1 cells assessed as reduction in [14C]-alpha-methylglucopyranoside uptake after 2 hrs by liquid scintillation counting
# Format: cell-based
row,Structure (SMILES),inhibition
1,COc1cc(C(Nc2cccc(C)n2)c2ccc3ccc(C)nc3c2O)cc(OC)c1OC (stereo not drawn),Dose-dependent effect
2,COc1ccc(NC(=S)NNC(=O)c2cc(-c3ccccc3)sc2N)cc1,Dose-dependent effect
3,CC(C)(C)C(O)Cn1c(=N)n(Cc2ccccc2)c2ccccc21 (stereo not drawn),Dose-dependent effect

# Biological target: T2, Sodium/glucose cotransporter 2 (Homo sapiens, UniProt P31639)
# T2 sequence (P31639 whole entry): T1 sequence (whole entry)
# Assay: as §1
# Format: cell-based
row,Structure (SMILES),EC50 [µM]
1,N=c1n(CCO)c2ccccc2n1Cc1ccc(Cl)cc1,31.1
2,CCOc1ccc(Cc2cc([C@@H]3O[C@H](CO)[C@@H](O)[C@H](O)[C@H]3O)ccc2C)cc1,0.0011
3,COc1cc(C(Nc2cccc(C)n2)c2ccc3ccc(C)nc3c2O)cc(OC)c1OC (stereo not drawn),5.92
4,COc1ccc(NC(=S)NNC(=O)c2cc(-c3ccccc3)sc2N)cc1,8.98
5,N=c1n(Cc2ccc(Cl)cc2)c2ccccc2n1CC(O)c1ccco1 (stereo not drawn),11
6,N=c1n(Cc2ccccc2)c2ccccc2n1CC(O)c1cccs1 (stereo not drawn),19.1
7,CC(C)(C)C(O)Cn1c(=N)n(Cc2ccccc2)c2ccccc21 (stereo not drawn),3.85
8,CCc1ccc(Cc2cc([C@@H]3O[C@H](CO)[C@@H](O)[C@H](O)[C@H]3O)ccc2C)cc1,0.012
9,Cn1cc(CCc2ccc3c(c2)CCO3)c2c(O[C@@H]3O[C@H](CO)[C@@H](O)[C@H](O)[C@H]3O)cccc21,0.067
10,OC[C@H]1O[C@@H](n2cc(Cc3ccc(C4CC4)cc3)c3c(F)cc(F)cc32)[C@H](O)[C@@H](O)[C@@H]1O,0.0028
11,N=c1n(CCO)c2ccccc2n1Cc1ccccc1,> 50
12,CC(C)(C)C(O)Cn1c(=N)n(CCN2CCCCC2)c2ccccc21 (stereo not drawn),> 50
13,OC[C@H]1O[C@@H](n2cc(Cc3ccc(C4CC4)cc3)c3c(Cl)cccc32)[C@H](O)[C@@H](O)[C@@H]1O,0.0023
14,COc1ccc(C(O)Cn2c(=N)n(Cc3ccccc3)c3ccccc32)cc1 (stereo not drawn),16.2
15,OC[C@H]1O[C@@H](Oc2cccc3[nH]cc(CCc4ccc5c(c4)CCO5)c23)[C@H](O)[C@@H](O)[C@@H]1O,0.024
16,N=c1n(Cc2ccccc2)c2ccccc2n1CC(O)COc1ccccc1 (stereo not drawn),4.6
17,N=c1n(CC(=O)O)c2ccccc2n1Cc1ccc(Cl)cc1,> 50
18,OC[C@H]1O[C@@H](n2cc(Cc3ccc(C4CC4)cc3)c3c(F)cccc32)[C@H](O)[C@@H](O)[C@@H]1O,0.0019
19,N=c1n(Cc2ccccc2)c2ccccc2n1CC(O)c1ccco1 (stereo not drawn),34.7
20,C=CCn1c(=N)n(CC(O)C(C)(C)C)c2ccccc21 (stereo not drawn),40.4
